Measurements: US11987563B1, “3-cyano 4,5-diphenyl furan-2-carboxamides as antitubercular agents” (KING FAISAL UNIVERSITY, priority 2023, dated 2024)

Assays:
M. smegmatis = assay: Microplate Alamar Blue Assay (MABA) against M. smegmatis; format: cell-based, Mycobacterium smegmatis; details: Mycolicibacterium smegmatis; read-out: M. smegmatis (% of inhibition) 50 μg/mL
M. tuberculosis H37Rv = assay: Microplate Alamar Blue Assay (MABA) against M. tuberculosis H37Rv; format: cell-based; details: Mycobacterium tuberculosis, read-out: M. tuberculosis H37Rv (% of inhibition) 50 μg/mL

| Compound | inhibition at 50 µg/mL (M. smegmatis) [%] | inhibition at 50 µg/mL (M. tuberculosis H37Rv) [%] |
| --- | --- | --- |
| CC(=O)Nc1oc(-c2ccccc2)c(-c2ccccc2)c1C#N [Compound 2a, N-(3-Cyano-4,5-diphenylfuran-2-yl)acetamide] | 38 | 27 |
| N#Cc1c(NC(=O)c2ccccc2)oc(-c2ccccc2)c1-c1ccccc1 [Compound 2b, N-(3-Cyano-4,5-diphenylfuran-2-yl)benzamide] | 13 | 6 |
| N#Cc1c(N)oc(-c2ccccc2)c1-c1ccccc1 [Compound 1, 2-Amino-4,5-diphenylfuran-3-carbonitrile] | 32 | 6 |
| Cc1ccc(S(=O)(=O)Nc2oc(-c3ccccc3)c(-c3ccccc3)c2C#N)cc1 [Compound 2d, N-(3-Cyano-4,5-diphenylfuran-2-yl)-4-methylbenzenesulfonamide] | 37 | 9 |
| N#Cc1c(NC(=O)c2ccc(Cl)cc2)oc(-c2ccccc2)c1-c1ccccc1 [Compound 2c, 4-Chloro-N-(3-cyano-4,5-diphenylfuran-2-yl)benzamide] | 25 | 19 |
